Results from patent publication US7951364B2, “CaR receptor as a mediator of migratory cell chemotaxis and/or chemokinesis” (The General Hospital Corporation, priority 2000, dated 2011).

Assays:
CaR = target: T1, CaR (Homo sapiens, UniProt P41180); experiment: Cytosolic calcium changes in purified monocytes (Indo-1/AM, flow cytometry); type: cell-based
T1 construct: endogenous in cells; host or cells: peripheral blood CD14+ monocytes, sorted by FACS
T1 sequence (P41180 20-1078): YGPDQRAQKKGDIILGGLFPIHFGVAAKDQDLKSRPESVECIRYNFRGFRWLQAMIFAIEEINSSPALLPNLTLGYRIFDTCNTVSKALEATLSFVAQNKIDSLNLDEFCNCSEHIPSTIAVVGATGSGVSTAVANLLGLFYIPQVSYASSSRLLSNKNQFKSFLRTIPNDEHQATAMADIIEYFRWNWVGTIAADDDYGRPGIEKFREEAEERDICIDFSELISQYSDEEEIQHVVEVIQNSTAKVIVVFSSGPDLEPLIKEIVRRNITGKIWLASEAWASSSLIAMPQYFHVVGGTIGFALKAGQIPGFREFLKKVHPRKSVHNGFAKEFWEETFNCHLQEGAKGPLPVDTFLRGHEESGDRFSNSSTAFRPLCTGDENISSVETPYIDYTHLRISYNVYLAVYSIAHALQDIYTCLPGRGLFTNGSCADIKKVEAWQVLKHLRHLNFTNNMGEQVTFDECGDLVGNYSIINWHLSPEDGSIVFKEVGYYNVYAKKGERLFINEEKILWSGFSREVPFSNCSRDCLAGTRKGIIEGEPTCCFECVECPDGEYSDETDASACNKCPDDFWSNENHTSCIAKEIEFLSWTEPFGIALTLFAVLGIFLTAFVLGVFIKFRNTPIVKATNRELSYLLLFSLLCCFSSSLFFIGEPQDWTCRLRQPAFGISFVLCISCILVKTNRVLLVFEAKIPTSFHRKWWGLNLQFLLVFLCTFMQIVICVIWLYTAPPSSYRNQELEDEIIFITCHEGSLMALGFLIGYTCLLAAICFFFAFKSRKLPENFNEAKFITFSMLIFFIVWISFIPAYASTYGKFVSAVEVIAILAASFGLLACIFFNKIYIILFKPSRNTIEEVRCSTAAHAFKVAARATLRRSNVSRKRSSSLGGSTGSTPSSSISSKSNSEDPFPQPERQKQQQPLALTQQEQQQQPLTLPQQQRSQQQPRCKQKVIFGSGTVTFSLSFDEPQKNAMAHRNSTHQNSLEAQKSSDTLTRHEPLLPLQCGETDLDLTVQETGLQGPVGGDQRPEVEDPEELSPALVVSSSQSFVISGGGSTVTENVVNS
Protocol: Preparation of peripheral blood CD14^+ monocytes. Low density cells were isolated from human and mouse peripheral blood using Ficoll-Hypaque (Pharmacia, Piscataway, N.J.). CD14^+ monocytes were purified by sorting on FACSVantage (Becton Dickinson, San Jose, Calif.) based on CD14 expression. Purified cells were incubated in either calcium-free medium (Hanks' Balanced Salt Solution 1×, CellGro, Hermdon. VA) or Iscove's Medium 1×(Mod) (CellGro, Herndon, Va.) which contains 1.5 mM Ca++. […] Cells were incubated for up to 24 hours in 5% CO2 humidified air. Monocytes were then detached from the plate using a cell scraper. All calcium concentrations indicated in the presentation of the data represent the total Ca^++ present in the basal medium plus any added Ca^++.
Cytosolic calcium changes. Purified monocytes were loaded with Indo-1/AM (Molecular Probes, Eugene, Oreg.). Cells were collected on FACSVantage for 0.30 sec to establish a baseline emission value for Indo-1/AM. […] Data acquisition then continued for up to 5 minutes.

[1] = tested on: mononuclear cells derived from neonatal CaR −/−, +/− or +/+ mice; experiment: Transmigration assay with cells from CaR knockout and wild-type mice; type: cell-based, mouse; details: CaR −/− cells
Protocol: Transmigration assays. Transwells (5 μm pore size polycarbonate membrane, 12 mm diameter) (Costar, Corning, N.Y.) were used to assess cell migration using an established methodology (25). The concentration of Ca^++ in IMDM (CellGro, Herndon, Va.) in the upper and lower chambers of the transwell were adjusted according to a checkerboard analysis of chemotaxis. Calcium concentrations varied from 0 mM to 6.5 mM. Purified monocytes (1×10^4) were then placed in the top chamber with 150 μl of IMDM (CellGro, Hemdon, Va.). 500 μl of the medium was added to the bottom of the well and supplemented with varying concentrations of Ca^++ or with Ca^++ plus 10 ng/ml of MCP-1, 100 ng/ml of SDF-1α or 10 ng/ml of MIP-1α (PeproTech, Rocky Hills, N.Y.). Cells were incubated at 37° C. for 3 hours. To study inhibition of chemotaxis, cells were subsequently incubated with wortmannin (1 μM for 20 minutes at 37° C.), herbimycin (1 μM for 20 minutes at 37° C.) or genistein (1 μg/ml for 20 minutes at 37° C.), before their use in transmigration assays. At the end of the experiment, cells were then harvested from the lower chamber and counted using a hemocytometer.
CaR−/− were bred as previously described (Ho, C., et al., Nat Genet 1995, 11:389-94). To produce CaR−/− mice for this study, heterozygote mice were intercrossed. The mice studied were either 129S6/svev or 129S6/svev/Swiss Webster mixed genetic background. […]

In the case of `[Ca+2].[Cl-].[Cl-]` [Ca^++, calcium chloride], the “Increase in cytosolic calcium” value (CaR; 4.5 mM Ca^++) is reported as “Sustained increases”, the “Extracellular Ca^++ concentration giving maximal cytosolic Ca^++ response” value (CaR; monocytes, dose dependent) is reported as 4.5 mM and the “Transmigration to the Ca^++ gradient” value [1] is reported as “failed to transmigrate”.
